According to US5075440A, “Novel pyrido[2,3-f](1,4)thiazepines and pyrido[3,2-b](1,5)benzothiazepines” (Ortho Pharmaceutical Corporation, priority 1990, dated 1991):
Values joined by “and” are separate entries in the source; they are usually repeats but may differ in a detail not shown here. Equal values may be shown once.

Key:
aorta tissue = assay: Inhibition of calcium dependent smooth muscle contraction, aorta (P#176 Aorta); parameters: species or system dog; conditions: Canis lupus familiaris, 50 mM KCl contraction, read-out: P#176 Aorta % INHB/μM
Protocol: (§1) The test for inhibition of calcium dependent smooth muscle contraction is determined according to the following procedure:
(§2) The trachea and the aorta from dogs sacrificed by excess KCl injection are stored overnight at 4° C. in oxygenated Krebs-Henseleit buffer. Tracheal rings, one cartilage segment wide (5-10 mm), are cut starting from the bronchial end. Rings of aorta tissue of the same width are also prepared. After cutting the cartilage, the trachealis muscle tissue and the aorta tissue are suspended in oxygenated Krebs-Henseleit buffer at 37° C. in a 25 ml tissue bath. After a 60-minute equilibration period, the tissues are challenged with 10 μM carbachol. After 5 minutes, the tissues are rinsed and allowed to rest 50 minutes. The tissues are then challenged with 50 mM KCl and, after 30 minutes, the contractions are quantitated. The tissues are then rinsed and reequilibrated for 50 minutes. Test compounds are then added for 10 minutes, and the tissue is rechallenged with 50 mM KCl. After 30 minutes, the contraction is recorded and used to determine the % inhibition of control.
(§3) The percent inhibition of smooth muscle contraction is calculated from response data before and after drug treatment. [formula]

[1] = biological target: T1, Calcium Channel (3H-nitrendipine binding, heart membranes) (Oryctolagus cuniculus, UniProt P15381); assay: Inhibition of 3H-nitrendipine binding (P#166 Nit. Binding); parameters: species or system rabbit; conditions: for IC50: rabbit heart membranes, 3H-nitrendipine 0.05-0.50 nM
T1 construct: the heart is immediately removed, cleaned and chopped into small pieces; The tissue is homogenized; from tissue; host or cells: heart membranes of female New Zealand white rabbits (42,000×g pellet)
Protocol: The assay for inhibition of nitrendipine binding is performed using the following procedure:
Female, New Zealand white rabbits (1-2 kg) are sacrificed by cervical dislocation, and the heart is immediately removed, cleaned and chopped into small pieces. The tissue is homogenized in 5×volume of 0.05M Hepes buffer, pH 7.4. The homogenate is centrifuged at 4000×g for 10 minutes, and the supernatant is recentrifuged at 42,000×g for 90 minutes. The resulting membrane pellet is resuspended (0.7 ml/g weight) in 0.05M Hepes, pH 7.4 and stored at […] until used. Each tube of the binding assay contains ^3 H-nitrendipine (0.05-0.50 nM), buffer, membranes (0.10 ml), and test compound in a total volume of 1.0 ml. After 90 minutes at 4° C., the bound nitrendipine is separated from the unbound by filtration on Whatman GF/C filters. After rinsing, the filters are dried and counted in a liquid scintillation counter.
Non-specific binding of ^3 H-nitrendipine (that amount bound in the presence of excess unlabelled nitrendipine) is subtracted from the total bound to obtain specifically bound radiolabeled nitrendipine. The amount of specifically bound nitrendipine in the presence of a test compound is compared to that amount bound in the absence of a compound. A percent displacement (or inhibition) can then be obtained.

trachealis muscle tissue = assay: Inhibition of calcium dependent smooth muscle contraction, trachea (P#176 Trach); parameters: species or system dog; conditions: Canis lupus familiaris, 50 mM KCl contraction, read-out: P#176 Trach % INHB/μM
Protocol: as §1, §2, §3

T1 sequence (P15381 whole entry, other chains not shown): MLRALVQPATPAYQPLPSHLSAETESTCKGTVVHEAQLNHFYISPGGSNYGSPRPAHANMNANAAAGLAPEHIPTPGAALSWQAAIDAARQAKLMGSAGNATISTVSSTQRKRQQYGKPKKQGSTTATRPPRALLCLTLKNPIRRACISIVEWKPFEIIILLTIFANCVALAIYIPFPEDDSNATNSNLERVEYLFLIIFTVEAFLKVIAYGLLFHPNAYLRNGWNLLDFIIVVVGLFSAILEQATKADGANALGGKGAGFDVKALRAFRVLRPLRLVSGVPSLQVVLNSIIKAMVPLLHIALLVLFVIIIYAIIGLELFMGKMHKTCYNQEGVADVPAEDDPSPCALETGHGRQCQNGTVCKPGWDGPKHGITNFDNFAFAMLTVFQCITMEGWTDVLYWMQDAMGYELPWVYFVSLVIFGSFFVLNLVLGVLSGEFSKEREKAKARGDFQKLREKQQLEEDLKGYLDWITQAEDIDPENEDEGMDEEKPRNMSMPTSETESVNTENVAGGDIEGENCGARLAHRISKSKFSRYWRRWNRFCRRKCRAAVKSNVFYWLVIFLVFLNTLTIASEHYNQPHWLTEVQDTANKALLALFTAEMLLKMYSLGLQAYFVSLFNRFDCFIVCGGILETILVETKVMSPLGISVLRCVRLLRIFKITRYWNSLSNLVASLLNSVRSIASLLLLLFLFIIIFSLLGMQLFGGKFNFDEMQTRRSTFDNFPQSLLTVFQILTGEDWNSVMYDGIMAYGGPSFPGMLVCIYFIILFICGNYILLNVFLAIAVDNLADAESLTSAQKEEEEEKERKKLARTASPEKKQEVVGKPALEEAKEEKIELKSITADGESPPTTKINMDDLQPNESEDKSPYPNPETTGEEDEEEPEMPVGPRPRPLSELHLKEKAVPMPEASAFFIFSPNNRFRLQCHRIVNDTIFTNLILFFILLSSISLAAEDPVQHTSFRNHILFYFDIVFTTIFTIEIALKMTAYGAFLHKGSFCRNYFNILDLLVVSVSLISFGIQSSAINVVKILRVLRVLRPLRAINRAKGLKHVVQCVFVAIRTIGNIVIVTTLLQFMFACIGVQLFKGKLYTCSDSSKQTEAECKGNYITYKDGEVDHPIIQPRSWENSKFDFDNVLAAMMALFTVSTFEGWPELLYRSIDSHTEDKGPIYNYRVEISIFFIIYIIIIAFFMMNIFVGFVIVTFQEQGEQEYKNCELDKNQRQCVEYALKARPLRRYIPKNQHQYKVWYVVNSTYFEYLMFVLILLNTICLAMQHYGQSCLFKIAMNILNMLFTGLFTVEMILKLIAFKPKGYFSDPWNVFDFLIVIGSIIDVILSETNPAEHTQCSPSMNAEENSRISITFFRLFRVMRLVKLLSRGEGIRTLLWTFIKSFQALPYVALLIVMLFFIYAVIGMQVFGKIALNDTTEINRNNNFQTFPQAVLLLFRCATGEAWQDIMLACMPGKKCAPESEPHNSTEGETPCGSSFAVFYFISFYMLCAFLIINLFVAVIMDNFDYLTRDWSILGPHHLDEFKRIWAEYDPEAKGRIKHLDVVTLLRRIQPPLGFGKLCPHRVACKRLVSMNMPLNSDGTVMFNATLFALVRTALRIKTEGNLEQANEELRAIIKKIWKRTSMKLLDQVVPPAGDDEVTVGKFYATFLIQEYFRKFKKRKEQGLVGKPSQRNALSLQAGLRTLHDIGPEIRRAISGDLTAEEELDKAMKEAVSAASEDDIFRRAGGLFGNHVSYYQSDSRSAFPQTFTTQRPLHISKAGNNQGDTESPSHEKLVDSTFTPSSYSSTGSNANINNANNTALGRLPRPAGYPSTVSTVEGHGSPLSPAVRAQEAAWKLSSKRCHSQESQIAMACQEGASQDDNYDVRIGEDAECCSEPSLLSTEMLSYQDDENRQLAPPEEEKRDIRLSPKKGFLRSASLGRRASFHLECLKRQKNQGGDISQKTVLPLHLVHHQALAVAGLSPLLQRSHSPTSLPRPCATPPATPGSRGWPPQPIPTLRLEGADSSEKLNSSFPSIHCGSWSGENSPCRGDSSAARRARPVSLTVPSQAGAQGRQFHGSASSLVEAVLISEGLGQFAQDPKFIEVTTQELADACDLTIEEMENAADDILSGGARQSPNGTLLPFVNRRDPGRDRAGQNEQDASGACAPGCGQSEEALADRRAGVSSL
T1 sequence (P13806 27-960 partner limits assumed, other chains not shown): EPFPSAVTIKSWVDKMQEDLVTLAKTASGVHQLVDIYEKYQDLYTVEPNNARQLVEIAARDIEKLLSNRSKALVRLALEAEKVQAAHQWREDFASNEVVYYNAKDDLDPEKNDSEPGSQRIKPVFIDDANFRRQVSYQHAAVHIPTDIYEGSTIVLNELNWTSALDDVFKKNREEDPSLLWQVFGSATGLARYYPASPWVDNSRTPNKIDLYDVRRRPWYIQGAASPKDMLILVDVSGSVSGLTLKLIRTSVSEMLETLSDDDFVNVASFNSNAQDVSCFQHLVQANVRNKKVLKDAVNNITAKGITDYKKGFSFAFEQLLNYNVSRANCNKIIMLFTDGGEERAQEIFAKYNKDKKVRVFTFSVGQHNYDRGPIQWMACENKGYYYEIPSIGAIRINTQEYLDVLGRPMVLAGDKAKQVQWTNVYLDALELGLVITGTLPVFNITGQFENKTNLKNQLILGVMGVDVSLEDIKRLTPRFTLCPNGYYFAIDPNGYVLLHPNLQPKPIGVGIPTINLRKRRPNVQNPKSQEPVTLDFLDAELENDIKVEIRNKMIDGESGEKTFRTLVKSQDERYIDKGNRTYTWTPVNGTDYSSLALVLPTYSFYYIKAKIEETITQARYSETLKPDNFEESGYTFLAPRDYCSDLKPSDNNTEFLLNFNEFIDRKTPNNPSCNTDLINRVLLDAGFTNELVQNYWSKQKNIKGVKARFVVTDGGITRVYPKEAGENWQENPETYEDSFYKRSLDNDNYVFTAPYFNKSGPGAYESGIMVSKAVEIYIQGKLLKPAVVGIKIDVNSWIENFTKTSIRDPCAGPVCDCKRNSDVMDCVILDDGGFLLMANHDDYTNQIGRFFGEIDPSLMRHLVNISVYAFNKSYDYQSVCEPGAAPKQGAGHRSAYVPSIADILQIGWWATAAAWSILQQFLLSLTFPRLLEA
T1 sequence (P13806 961-1106 partner limits assumed, other chains not shown): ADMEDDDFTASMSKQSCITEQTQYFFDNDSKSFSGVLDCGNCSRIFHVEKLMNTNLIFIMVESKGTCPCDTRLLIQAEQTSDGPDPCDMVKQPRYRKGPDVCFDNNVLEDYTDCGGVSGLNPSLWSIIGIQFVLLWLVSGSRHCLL

Row | Compound | inhibition at 0.01 µM (aorta tissue) [%] | inhibition at 0.1 µM (aorta tissue) [%] | inhibition at 1 µM (aorta tissue) [%] | IC50 [1] | inhibition at 0.01 µM (trachealis muscle tissue) [%] | inhibition at 0.1 µM (trachealis muscle tissue) [%] | inhibition at 2 µM (trachealis muscle tissue) [%] | inhibition at 0.3 µM (aorta tissue; 0.3 μM) [%] | inhibition at 1 µM ([1]; @ 1.0 μM test compound) [%] | inhibition at 0.03 µM (trachealis muscle tissue) [%] | inhibition at 0.3 µM (trachealis muscle tissue) [%] | inhibition at 1 µM (trachealis muscle tissue; 1.0 μM) [%] | inhibition at 0.03 µM (aorta tissue; 0.03 μM) [%]
1 | CCOC(=O)C1=C(C)NC2=C(C1c1c(F)c(F)c(F)c(F)c1F)S(=O)(=O)CCNC2 (stereo not shown) [pentafluoro / H / ethyl, Ethyl 1,1-dioxo-2,3,4,5,6,9-hexahydro-7-methyl-9-(2,3,4,5,6-pentafluorophenyl)-pyrido[2,3-f][1,4]-thiazepine-8-carboxylate] | 61 | 89 | 95 | 90 nM | 13 | 63 | 98 | – | – | – | – | – | –
2 | CCOC(=O)C1=C(C)NC2=C(C1c1cccc(Cl)c1Cl)S(=O)(=O)CCN(C(=O)OC(C)(C)C)C2 (stereo not shown) [2,3-dichloro / BOC / ethyl, Ethyl 9-(2,3-Dichlorophenyl)-4-(t-butyloxycarbonyl) -1,1-dioxo-2,3,4,5,6,9-hexahydro-7-methylpyrido[2,3-f][1,4]thiazepine-8-carboxylate] | – | – | 18 | – | – | – | 0 | 4 | 32 | – | – | – | –
3 | CCOC(=O)C1=C(C)NC2=C(C1c1cccc(Cl)c1Cl)S(=O)(=O)CCN(C)C2 (stereo not shown) [2,3-dichloro / Me / ethyl, Ethyl 9-(2,3-dichlorophenyl)-4,7-dimethy-1,1-dioxo-2,3,4,5,6,9-hexahydropyrido[2,3-f][1,4]thiazepine-8-carboxylate] | 67 | 96 | 97 | 120 nM | 55 | 80 | 98 | – | – | – | – | – | –
4 | CCOC(=O)C1=C(C)NC2=C(C1c1cccc([N+](=O)[O-])c1)S(=O)(=O)CCNC2 (stereo not shown) [3-nitro / H / ethyl] | – | 88 | 100 | 240 nM | – | – | 93 | – | – | 58 | – | – | –
5 | CCOC(=O)C1=C(C)NC2=C(C1c1cccc(Cl)c1Cl)S(=O)(=O)CCN(C(C)C)C2 (stereo not shown) [2,3-dichloro / iPr / ethyl] | 38 | 83 | 95 | 72 nM | – | 37 | 86 | – | – | – | 61 | – | –
6 | CCCN1CCS(=O)(=O)C2=C(C1)NC(C)=C(C(=O)OCC)C2c1cccc(Cl)c1Cl (stereo not shown) [2,3-dichloro / Pr / ethyl] | 53 | 88 | 100 | 145 nM | – | 44 | 68 | – | – | 30 | 53 | – | –
7 | CCOC(=O)C1=C(C)NC2=C(C1c1cccc(Cl)c1Cl)S(=O)(=O)CCNC2 (stereo not shown) [2,3-dichloro / H / ethyl, Ethyl 9-(2,3-dichlorophenyl)-1,1-dioxo-2,3,4,5,6,9-hexahydro-7-methyl-pyrido[2,3-f][1,4]thiazepine-8-carboxylate] | 21 | 85 | 96 | 99 nM and 105 nM | – | 43 | – | – | – | – | – | 73 | –
8 | CC1=C(C(=O)OCCN(C)Cc2ccccc2)C(c2cccc(Cl)c2Cl)C2=C(CNCCS2(=O)=O)N1 (stereo not shown) [2,3-dichloro / H / NBzNMe-ethyl, 2-(N-benzyl-N-methylamino)ethyl 9-(2,3-dichlorophenyl)-1,1-dioxo-2,3,4,5,6,9-hexahydro-7-methylpyrido[2,3-f][1,4]thiazepine-8-carboxylate] | – | 48 | 93 | 380 nM | – | 23 | 86 | – | – | – | 62 | – | 20
9 | CCOC(=O)C1=C(C)NC2=C(C1c1ccccc1C(F)(F)F)S(=O)(=O)CCNC2 (stereo not shown) [2-CF3 / H / ethyl] | 37 | 68 | 83 | 360 nM | – | 38 | 73 | – | – | – | 35 | – | –
